Target: T1, human T1R2/T1R3 taste receptor (Homo sapiens, UniProt Q7RTX0+Q8TE23)
T1 construct: the cDNA for the receptors ht1R2 and ht1R3 and the cDNA for the blasticidin S deaminase gene have been cloned; expressed in transfected cells; host or cells: HEK293 stably expressing mouse G-alpha-15, stably transfected with the tricistronic vector pTrix-Eb-R2R3 (blasticidin selection)
T1 sequence (Q8TE23 20-839): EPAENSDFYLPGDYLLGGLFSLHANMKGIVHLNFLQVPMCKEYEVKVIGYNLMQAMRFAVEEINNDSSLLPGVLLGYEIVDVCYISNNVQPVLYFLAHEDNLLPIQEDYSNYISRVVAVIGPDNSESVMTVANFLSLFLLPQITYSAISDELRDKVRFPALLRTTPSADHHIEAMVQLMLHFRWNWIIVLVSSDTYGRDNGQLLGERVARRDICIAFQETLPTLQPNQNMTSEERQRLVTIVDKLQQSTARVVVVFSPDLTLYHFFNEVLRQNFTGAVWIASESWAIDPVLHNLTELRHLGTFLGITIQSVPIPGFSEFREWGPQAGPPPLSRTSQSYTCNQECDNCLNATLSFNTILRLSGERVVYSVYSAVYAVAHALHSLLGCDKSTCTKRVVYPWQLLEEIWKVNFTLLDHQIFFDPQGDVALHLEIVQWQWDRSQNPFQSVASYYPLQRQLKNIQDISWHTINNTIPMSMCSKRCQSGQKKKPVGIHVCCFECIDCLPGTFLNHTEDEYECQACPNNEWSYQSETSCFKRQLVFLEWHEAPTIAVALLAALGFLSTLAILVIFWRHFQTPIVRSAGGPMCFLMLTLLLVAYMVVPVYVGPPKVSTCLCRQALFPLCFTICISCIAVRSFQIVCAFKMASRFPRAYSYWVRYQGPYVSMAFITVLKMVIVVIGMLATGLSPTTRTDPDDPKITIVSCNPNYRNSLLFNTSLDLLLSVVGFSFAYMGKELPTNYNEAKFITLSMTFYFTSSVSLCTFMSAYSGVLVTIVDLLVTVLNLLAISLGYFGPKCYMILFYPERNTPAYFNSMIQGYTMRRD
T1 sequence (Q7RTX0 21-852): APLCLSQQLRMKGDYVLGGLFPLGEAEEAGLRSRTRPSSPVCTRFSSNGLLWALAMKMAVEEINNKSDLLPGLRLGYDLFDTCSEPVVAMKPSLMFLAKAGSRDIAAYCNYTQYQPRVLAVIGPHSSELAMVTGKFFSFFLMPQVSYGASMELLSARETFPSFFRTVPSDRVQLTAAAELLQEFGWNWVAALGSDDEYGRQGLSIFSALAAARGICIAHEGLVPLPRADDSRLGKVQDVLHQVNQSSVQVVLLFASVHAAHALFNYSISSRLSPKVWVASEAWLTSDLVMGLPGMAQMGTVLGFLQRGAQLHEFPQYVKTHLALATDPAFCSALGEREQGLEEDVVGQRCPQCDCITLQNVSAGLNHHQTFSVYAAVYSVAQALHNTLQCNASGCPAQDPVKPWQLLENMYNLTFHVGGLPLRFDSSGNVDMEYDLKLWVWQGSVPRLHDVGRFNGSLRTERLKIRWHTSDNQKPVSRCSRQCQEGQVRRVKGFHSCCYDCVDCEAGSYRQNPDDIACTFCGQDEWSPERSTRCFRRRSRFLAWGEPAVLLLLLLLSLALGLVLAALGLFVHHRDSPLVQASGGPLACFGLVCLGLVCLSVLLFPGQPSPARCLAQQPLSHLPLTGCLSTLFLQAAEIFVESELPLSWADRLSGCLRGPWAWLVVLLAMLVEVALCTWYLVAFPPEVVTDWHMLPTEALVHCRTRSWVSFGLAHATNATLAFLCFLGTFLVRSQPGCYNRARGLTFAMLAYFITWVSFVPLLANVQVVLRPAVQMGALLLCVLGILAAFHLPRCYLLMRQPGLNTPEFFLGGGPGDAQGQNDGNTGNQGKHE
Assay: Recombinant human T1R2/T1R3 taste receptor dependent calcium (Fluo-4 AM) cell based assay in stable HEK293 cells
Description: Fluo-4 AM assay with stable HEK293 cells—Stable cells are maintained in DMEM high-glucose medium (Invitrogen) supplemented with 10% fetal bovine serum (Biochrom) and 4 mM L-glutamine (Invitrogen). Cells for calcium imaging are maintained in DMEM low-glucose medium supplemented with 10% FBS and 1× Glutamax-1 (Invitrogen) for 48 hours before seeding. These stable cells are trypsinized after 48 hours (either with Trypsin-EDTA, Accutase or TrypLE) and seeded onto poly-D-lysine coated 96-well assay plates (Corning) at a density of 45,000 cells/well in DMEM low-glucose medium supplemented with 10% FBS and 1× Glutamax-1.
After 24 hours, the cells were loaded in 100 μl medium with additional 100 μl of 4 μM Fluo-4 (calcium sensing dye, 2 μM end concentration; Molecular Probes) in Krebs-HEPES (KH)-buffer for 1 hour. The loading reagent is then replaced by 80 μl KH-buffer per well. The Krebs-HEPES-buffer (KH-buffer) is a physiological saline solution including 1.2 mM CaCl2, 4.2 mM NaHCO3 and 10 mM HEPES.
The dye-loaded stable cells in plates were placed into a fluorescence microtiter plate reader to monitor fluorescence (excitation 488 nm, emission 520 nm) change after the addition of 20 μl KH-buffer supplemented with 5x tastants. For each trace, tastant was added 11.5 seconds after the start of the scan and mixed two times with the buffer, scanning continued for an additional 32 seconds, and data were collected every second.
Data analysis/Data recording—Calcium mobilization was quantified as the change of peak fluorescence OF) over the baseline level (F). Data were expressed as the mean S.E. of the )F/F value of replicated independent samples. The analysis was done with the software of the microtiter plate reader.
To analyze the function and activity of aladapcin the heterodimeric T1R2/T1R3 sweet taste receptor has been utilized in a calcium dependent cell based assay. T1R type taste receptors have been transfected with the multicistronic plasmid vector pTrix-Eb-R2R3 in a HEK293 cell line stably expressing the promiscuous mouse G-alpha-15 G-protein. […]

Row | aladapcin activity on sweet taste receptors (activity as sweet enhancer): amplification of fructose (in the presence of 25 mM fructose, Fluo4-AM fluorescence increase, HEK293 cells expressing G-alpha-15, human T1R2 and T1R3, FIG. 2) | sweetener potential (receptor activation by the compound alone) (without the presence of fructose (control measurement), range 0.1-25 μm, FIG. 3) | activation of the sweet taste receptors by the sweetener alone (25 mM fructose (4.5 g/l), preexaminations) | SMILES
1 | dose dependent | no sweetener potential | – | CC(NC(=O)C(C)NC(=O)C(N)CCCC(N)C(N)=O)C(=O)O (stereo not drawn) [Aladapcin, 2-[2-[(2,6-diamino-6-carbamoyl-hexanoyl)-amino]propanoylamino]propanoic acid]
2 | – | – | barely activating | O=C(CO)[C@@H](O)[C@H](O)[C@H](O)CO [fructose, reference compound]

Reference: patent US20090202698A1, “OLIGOPEPTIDES FOR USE AS TASTE MODULATORS” (Nutrinova Nutrition Specialties & Food Ingredients GmbH, priority 2008, published 2009)
